Results published in patent publication US11767341B2, “Lincosamide antibiotics and uses thereof” (President and Fellows of Harvard College, priority 2017, dated 2023).
In brackets after ≈: the same amount, converted by molar mass.

What follows are compounds tested on S. aureus ATCC 29213 (assay: MIC determination). Conditions: Staphylococcus aureus, ATCC29213, S. aureus ATCC 29213; read-out: MIC.
Format: cell-based

**Q.** Which MIC does the source give for CSC1O[C@H]([C@H](NC(=O)[C@H]2NC[C@@H]3C[C@@H](CCc4cccc(F)c4)CCO[C@H]32)[C@H](C)Cl)C(O)[C@@H](O)[C@H]1O (some centres unmarked) [FSA-510022] here?
**A.** The MIC was 0.12 mg/L (≈ 0.214 µM).

**Q.** For CSC1O[C@H]([C@H](NC(=O)[C@H]2NC[C@@H]3C[C@@H](c4ccc(C(F)(F)F)cc4)CCO[C@H]32)[C@H](C)Cl)C(O)[C@@H](O)[C@H]1O (some centres unmarked) [FSA-509019], which MIC is on record?
**A.** Its MIC is no more than 0.06 mg/L.

These compounds were tested on S. aureus BAA 977 iErmA (assay: MIC determination). Conditions: Staphylococcus aureus, BAA977.
Format: cell-based

**Q.** With CSC1O[C@H]([C@H](NC(=O)[C@H]2NC[C@@H]3C[C@@H](CCc4cccc(F)c4)CCO[C@H]32)[C@H](C)Cl)C(O)[C@@H](O)[C@H]1O (some centres unmarked) [FSA-510022] as the compound, how does the MIC read?
**A.** Its MIC is 0.12 mg/L (≈ 0.214 µM).

**Q.** With CSC1O[C@H]([C@H](NC(=O)[C@H]2NC[C@@H]3C[C@@H](c4ccc(C(F)(F)F)cc4)CCO[C@H]32)[C@H](C)Cl)C(O)[C@@H](O)[C@H]1O (some centres unmarked) [FSA-509019] as the compound, how does the MIC read?
**A.** Its MIC is 0.25 mg/L (≈ 0.429 µM).

What follows are compounds tested on S. aureus MP-549 msr(a) USA 300 (assay: MIC determination). Conditions: Staphylococcus aureus, USA300, S. aureus MP-549 msr(a) USA 300.
Format: cell-based

**Q.** With CSC1O[C@H]([C@H](NC(=O)[C@H]2NC[C@@H]3C[C@@H](CCc4cccc(F)c4)CCO[C@H]32)[C@H](C)Cl)C(O)[C@@H](O)[C@H]1O (some centres unmarked) [FSA-510022] as the compound, how does the MIC read?
**A.** Its MIC is 0.12 mg/L (≈ 0.214 µM).

What follows are compounds tested on S. aureus MMX 3035 cErmA (assay: MIC determination). Conditions: Staphylococcus aureus, MMX3035CERMA; S. aureus MMX 3035 cErmA; read-out: MIC.
Format: cell-based

**Q.** Which MIC does the source give for CSC1O[C@H]([C@H](NC(=O)[C@H]2NC[C@@H]3C[C@@H](CCc4cccc(F)c4)CCO[C@H]32)[C@H](C)Cl)C(O)[C@@H](O)[C@H]1O (some centres unmarked) [FSA-510022] here?
**A.** Its MIC is 2 mg/L (≈ 3.56 µM).

**Q.** Which MIC does the source give for CSC1O[C@H]([C@H](NC(=O)[C@H]2NC[C@@H]3C[C@@H](c4ccc(C(F)(F)F)cc4)CCO[C@H]32)[C@H](C)Cl)C(O)[C@@H](O)[C@H]1O (some centres unmarked) [FSA-509019] here?
**A.** Its MIC is 64 mg/L (≈ 110 µM).

Each compound was assayed on S. pneumoniae ATCC 49619 (assay: MIC determination). Conditions: Streptococcus pneumoniae, ATCC49619; S. pneumoniae ATCC 49619; read-out: MIC.
Format: cell-based

**Q.** Which MIC does the source give for CSC1O[C@H]([C@H](NC(=O)[C@H]2NC[C@@H]3C[C@@H](CCc4cccc(F)c4)CCO[C@H]32)[C@H](C)Cl)C(O)[C@@H](O)[C@H]1O (some centres unmarked) [FSA-510022] here?
**A.** Its MIC is no more than 0.06 mg/L.

**Q.** How did the MIC turn out when CSC1O[C@H]([C@H](NC(=O)[C@H]2NC[C@@H]3C[C@@H](c4ccc(C(F)(F)F)cc4)CCO[C@H]32)[C@H](C)Cl)C(O)[C@@H](O)[C@H]1O (some centres unmarked) [FSA-509019] was run?
**A.** The MIC was no more than 0.06 mg/L.

Each compound was assayed on S. pneumoniae MMX 3028 cErmB (assay: MIC determination). Conditions: Streptococcus pneumoniae, MMX3028CERMB.
Format: cell-based

**Q.** How did the MIC turn out when CSC1O[C@H]([C@H](NC(=O)[C@H]2NC[C@@H]3C[C@@H](c4ccc(C(F)(F)F)cc4)CCO[C@H]32)[C@H](C)Cl)C(O)[C@@H](O)[C@H]1O (some centres unmarked) [FSA-509019] was run?
**A.** Its MIC is 16 mg/L (≈ 27.4 µM).

Same assay, conditions: Streptococcus pneumoniae, MMX3028CERMB; S. pneumoniae MMX 3028 cErmB; read-out: MIC

**Q.** CSC1O[C@H]([C@H](NC(=O)[C@H]2NC[C@@H]3C[C@@H](CCc4cccc(F)c4)CCO[C@H]32)[C@H](C)Cl)C(O)[C@@H](O)[C@H]1O (some centres unmarked) [FSA-510022] was tested. Which MIC did it give?
**A.** Its MIC is 4 mg/L (≈ 7.13 µM).

What follows are compounds tested on S. pneumoniae MMX 3031 cMefA (assay: MIC determination). Conditions: Streptococcus pneumoniae, MMX3031CMEFA.
Format: cell-based

**Q.** For CSC1O[C@H]([C@H](NC(=O)[C@H]2NC[C@@H]3C[C@@H](CCc4cccc(F)c4)CCO[C@H]32)[C@H](C)Cl)C(O)[C@@H](O)[C@H]1O (some centres unmarked) [FSA-510022], which MIC is on record?
**A.** Its MIC is no more than 0.06 mg/L.

**Q.** How did the MIC turn out when CSC1O[C@H]([C@H](NC(=O)[C@H]2NC[C@@H]3C[C@@H](c4ccc(C(F)(F)F)cc4)CCO[C@H]32)[C@H](C)Cl)C(O)[C@@H](O)[C@H]1O (some centres unmarked) [FSA-509019] was run?
**A.** The MIC was 0.125 mg/L (≈ 0.214 µM).

These compounds were tested on S. pyogenes ATCC 19615 (assay: MIC determination). Conditions: Streptococcus pyogenes, ATCC19615; S. pyogenes ATCC 19615; read-out: MIC.
Format: cell-based

**Q.** CSC1O[C@H]([C@H](NC(=O)[C@H]2NC[C@@H]3C[C@@H](CCc4cccc(F)c4)CCO[C@H]32)[C@H](C)Cl)C(O)[C@@H](O)[C@H]1O (some centres unmarked) [FSA-510022] was tested. Which MIC did it give?
**A.** The MIC was no more than 0.06 mg/L.

**Q.** How did the MIC turn out when CSC1O[C@H]([C@H](NC(=O)[C@H]2NC[C@@H]3C[C@@H](c4ccc(C(F)(F)F)cc4)CCO[C@H]32)[C@H](C)Cl)C(O)[C@@H](O)[C@H]1O (some centres unmarked) [FSA-509019] was run?
**A.** Its MIC is no more than 0.06 mg/L.

The compounds below were run on S. pyogenes MMX 946 Macrolide-Resistant (assay: MIC determination). Conditions: Streptococcus pyogenes.
Format: cell-based

**Q.** Which MIC does the source give for CSC1O[C@H]([C@H](NC(=O)[C@H]2NC[C@@H]3C[C@@H](c4ccc(C(F)(F)F)cc4)CCO[C@H]32)[C@H](C)Cl)C(O)[C@@H](O)[C@H]1O (some centres unmarked) [FSA-509019] here?
**A.** Its MIC is 32 mg/L (≈ 54.9 µM).

Same assay, conditions: Streptococcus pyogenes; S. pyogenes MMX 946 MacRes; read-out: MIC

**Q.** How did the MIC turn out when CSC1O[C@H]([C@H](NC(=O)[C@H]2NC[C@@H]3C[C@@H](CCc4cccc(F)c4)CCO[C@H]32)[C@H](C)Cl)C(O)[C@@H](O)[C@H]1O (some centres unmarked) [FSA-510022] was run?
**A.** Its MIC is 0.5 mg/L (≈ 0.891 µM).

These compounds were tested on E. faecalis ATCC 29212 (assay: MIC determination). Conditions: Enterococcus faecalis, ATCC29212, read-out: MIC.
Format: cell-based

**Q.** With CSC1O[C@H]([C@H](NC(=O)[C@H]2NC[C@@H]3C[C@@H](CCc4cccc(F)c4)CCO[C@H]32)[C@H](C)Cl)C(O)[C@@H](O)[C@H]1O (some centres unmarked) [FSA-510022] as the compound, how does the MIC read?
**A.** Its MIC is 0.25 mg/L (≈ 0.446 µM).

**Q.** With CSC1O[C@H]([C@H](NC(=O)[C@H]2NC[C@@H]3C[C@@H](c4ccc(C(F)(F)F)cc4)CCO[C@H]32)[C@H](C)Cl)C(O)[C@@H](O)[C@H]1O (some centres unmarked) [FSA-509019] as the compound, how does the MIC read?
**A.** The MIC was 1 mg/L (≈ 1.72 µM).

These compounds were tested on E. faecalis MMX 847 Macrolide-Resistant (assay: MIC determination). Conditions: Enterococcus faecalis; E. faecalis MMX 847 MacRes; read-out: MIC.
Format: cell-based

**Q.** With CSC1O[C@H]([C@H](NC(=O)[C@H]2NC[C@@H]3C[C@@H](CCc4cccc(F)c4)CCO[C@H]32)[C@H](C)Cl)C(O)[C@@H](O)[C@H]1O (some centres unmarked) [FSA-510022] as the compound, how does the MIC read?
**A.** The MIC was 2 mg/L (≈ 3.56 µM).

Same assay, conditions: Enterococcus faecalis; E. faecalis MMX 847 Macrolide-Resistant (MacRes); read-out: MIC

**Q.** Which MIC does the source give for CSC1O[C@H]([C@H](NC(=O)[C@H]2NC[C@@H]3C[C@@H](c4ccc(C(F)(F)F)cc4)CCO[C@H]32)[C@H](C)Cl)C(O)[C@@H](O)[C@H]1O (some centres unmarked) [FSA-509019] here?
**A.** The MIC was 64 mg/L (≈ 110 µM).

These compounds were tested on K. pneumoniae ATCC 10031 (assay: MIC determination). Conditions: Klebsiella pneumoniae, ATCC10031.
Format: cell-based

**Q.** With CSC1O[C@H]([C@H](NC(=O)[C@H]2NC[C@@H]3C[C@@H](c4ccc(C(F)(F)F)cc4)CCO[C@H]32)[C@H](C)Cl)C(O)[C@@H](O)[C@H]1O (some centres unmarked) [FSA-509019] as the compound, how does the MIC read?
**A.** The MIC was 16 mg/L (≈ 27.4 µM).

Same assay, conditions: Klebsiella pneumoniae, ATCC10031; K. pneumoniae ATCC 10031; read-out: MIC

**Q.** CSC1O[C@H]([C@H](NC(=O)[C@H]2NC[C@@H]3C[C@@H](CCc4cccc(F)c4)CCO[C@H]32)[C@H](C)Cl)C(O)[C@@H](O)[C@H]1O (some centres unmarked) [FSA-510022] was tested. Which MIC did it give?
**A.** The MIC was 2 mg/L (≈ 3.56 µM).

These compounds were tested on E. coli ATCC 25922 (assay: MIC determination). Conditions: Escherichia coli, ATCC25922, E. coli ATCC 25922; read-out: MIC.
Format: cell-based

**Q.** With CSC1O[C@H]([C@H](NC(=O)[C@H]2NC[C@@H]3C[C@@H](CCc4cccc(F)c4)CCO[C@H]32)[C@H](C)Cl)C(O)[C@@H](O)[C@H]1O (some centres unmarked) [FSA-510022] as the compound, how does the MIC read?
**A.** The MIC was 32 mg/L (≈ 57 µM).

These compounds were tested on E. coli MP-9 ΔTolC (assay: MIC determination). Conditions: Escherichia coli.
Format: cell-based

**Q.** CSC1O[C@H]([C@H](NC(=O)[C@H]2NC[C@@H]3C[C@@H](CCc4cccc(F)c4)CCO[C@H]32)[C@H](C)Cl)C(O)[C@@H](O)[C@H]1O (some centres unmarked) [FSA-510022] was tested. Which MIC did it give?
**A.** Its MIC is 4 mg/L (≈ 7.13 µM).

**Q.** How did the MIC turn out when CSC1O[C@H]([C@H](NC(=O)[C@H]2NC[C@@H]3C[C@@H](c4ccc(C(F)(F)F)cc4)CCO[C@H]32)[C@H](C)Cl)C(O)[C@@H](O)[C@H]1O (some centres unmarked) [FSA-509019] was run?
**A.** Its MIC is 16 mg/L (≈ 27.4 µM).

Each compound was assayed on E. coli MP-74 LptD mutant (assay: MIC determination). Conditions: Escherichia coli.
Format: cell-based

**Q.** For CSC1O[C@H]([C@H](NC(=O)[C@H]2NC[C@@H]3C[C@@H](CCc4cccc(F)c4)CCO[C@H]32)[C@H](C)Cl)C(O)[C@@H](O)[C@H]1O (some centres unmarked) [FSA-510022], which MIC is on record?
**A.** Its MIC is 4 mg/L (≈ 7.13 µM).

**Q.** How did the MIC turn out when CSC1O[C@H]([C@H](NC(=O)[C@H]2NC[C@@H]3C[C@@H](c4ccc(C(F)(F)F)cc4)CCO[C@H]32)[C@H](C)Cl)C(O)[C@@H](O)[C@H]1O (some centres unmarked) [FSA-509019] was run?
**A.** The MIC was 32 mg/L (≈ 54.9 µM).

Each compound was assayed on H. influenzae ATCC 49247 (assay: MIC determination). Conditions: Haemophilus influenzae, ATCC49247; H. influenzae ATCC 49247; read-out: MIC.
Format: cell-based

**Q.** CSC1O[C@H]([C@H](NC(=O)[C@H]2NC[C@@H]3C[C@@H](CCc4cccc(F)c4)CCO[C@H]32)[C@H](C)Cl)C(O)[C@@H](O)[C@H]1O (some centres unmarked) [FSA-510022] was tested. Which MIC did it give?
**A.** Its MIC is 1 mg/L (≈ 1.78 µM).
